This passage reports IC50 results from US20220395496A1 (Hoffmann-La Roche Inc., priority 2019, published 2022).

This experiment deals with T1, human TLR7 (Homo sapiens, UniProt Q9NYK1).
T1 sequence (Q9NYK1 27-1049): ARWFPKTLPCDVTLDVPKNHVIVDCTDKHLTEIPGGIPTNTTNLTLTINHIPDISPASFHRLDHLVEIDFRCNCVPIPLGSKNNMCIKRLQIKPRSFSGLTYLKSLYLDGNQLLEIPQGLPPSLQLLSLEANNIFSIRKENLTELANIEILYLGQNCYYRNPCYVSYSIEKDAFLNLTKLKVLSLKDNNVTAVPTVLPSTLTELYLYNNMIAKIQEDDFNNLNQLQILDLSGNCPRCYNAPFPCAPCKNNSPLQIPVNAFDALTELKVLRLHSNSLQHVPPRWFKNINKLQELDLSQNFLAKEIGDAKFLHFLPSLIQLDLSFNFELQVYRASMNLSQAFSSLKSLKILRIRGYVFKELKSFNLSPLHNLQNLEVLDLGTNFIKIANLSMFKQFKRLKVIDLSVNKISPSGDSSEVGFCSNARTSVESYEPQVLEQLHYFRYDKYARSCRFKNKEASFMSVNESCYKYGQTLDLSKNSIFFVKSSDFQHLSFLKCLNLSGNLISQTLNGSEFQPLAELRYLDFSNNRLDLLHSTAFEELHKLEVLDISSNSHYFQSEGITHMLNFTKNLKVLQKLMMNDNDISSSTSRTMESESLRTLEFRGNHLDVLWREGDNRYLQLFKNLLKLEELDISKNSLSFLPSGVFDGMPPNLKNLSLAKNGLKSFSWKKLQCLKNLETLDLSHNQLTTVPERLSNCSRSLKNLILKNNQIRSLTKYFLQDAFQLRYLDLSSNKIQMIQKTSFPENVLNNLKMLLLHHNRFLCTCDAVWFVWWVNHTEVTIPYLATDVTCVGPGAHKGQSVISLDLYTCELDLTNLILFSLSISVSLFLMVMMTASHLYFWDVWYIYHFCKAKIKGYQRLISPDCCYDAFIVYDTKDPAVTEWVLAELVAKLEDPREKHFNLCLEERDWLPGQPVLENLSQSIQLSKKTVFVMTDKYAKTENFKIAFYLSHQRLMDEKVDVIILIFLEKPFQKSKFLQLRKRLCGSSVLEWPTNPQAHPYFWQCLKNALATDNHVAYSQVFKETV
The experiment is described as follows: HEK293-Blue-hTLR-7 cells assay (SEAP reporter, R848 stimulation). The experiment is classed as cell-based. The conditions noted are these: HEK293-Blue-hTLR7 cells, R848, 20 hrs; lowest tested concentration 0.0032. How it is done: The following tests were carried out in order to determine the activity of the compounds of this invention in HEK293-Blue-hTLR-7/8/9 cells assay.
HEK293-Blue-hTLR-7 Cells Assay:
A stable HEK293-Blue-hTLR-7 cell line was purchased from InvivoGen (Cat. #: hkb-htlr7, San Diego, Calif., USA). These cells were originally designed for studying the stimulation of human TLR7 by monitoring the activation of NF-κB. A SEAP (secreted embryonic alkaline phosphatase) reporter gene was placed under the control of the IFN-β minimal promoter fused to five NF-κB and AP-1-binding sites. The SEAP was induced by activating NF-κB and AP-1 via stimulating HEK-Blue hTLR7 cells with TLR7 ligands. Therefore the reporter expression was declined by TLR7 antagonist under the stimulation of a ligand, such as R848 (Resiquimod), for incubation of 20 hrs. The cell culture supernatant SEAP reporter activity was determined using QUANTI-Blue™ kit (Cat. #: rep-qb1, Invivogen, San Diego, Calif., USA) at a wavelength of 640 nm, a detection medium that turns purple or blue in the presence of alkaline phosphatase.
HEK293-Blue-hTLR7 cells were incubated at a density of 250,000˜450,000 cells/mL in a volume of 170 μL in a 96-well plate in Dulbecco's Modified Eagle's medium (DMEM) containing 4.5 g/L glucose, 50 U/mL penicillin, […], […], 2 mM L-glutamine, 10% (v/v) heat-inactivated fetal bovine serum with addition of 20 μL test compound in a serial dilution in the presence of final DMSO at 1% and 10 μL of 20 uM R848 in above DMEM, perform incubation under 37° C. in a CO2 incubator for 20 hrs. Then 20 μL of the supernatant from each well was incubated with 180 μL Quanti-blue substrate solution at 37° C. for 2 hrs and the absorbance was read at 620-655 nm using a spectrophotometer. The signalling pathway that TLR7 activation leads to downstream NF-κB activation has been widely accepted, and therefore similar reporter assay was modified for evaluating TLR7 antagonist.
Compound `C[C@H]1C[C@@H](NCc2cnc(N3CCN[C@H](C)C3)nc2)CN(c2ccc(C#N)c3ncccc23)C1` [Example 28, 5-[(3S,5R)-3-methyl-5-[[2-[(3R)-3-methylpiperazin-1-yl]pyrimidin-5-yl]methylamino]-1-piperidyl]quinoline-8-carbonitrile] returned an IC50 of 12 nM. This counts as double-digit nanomolar.
In the case of `C[C@H]1C[C@@H](NCc2cnc(N3CCN[C@@H](C)C3)nc2)CN(c2ccc(C#N)c3ncccc23)C1` [Example 29, 5-[(3S,5R)-3-methyl-5-[[2-[(3S)-3-methylpiperazin-1-yl]pyrimidin-5-yl]methylamino]-1-piperidyl]quinoline-8-carbonitrile] it was 8 nM; in that of `C[C@H]1C[C@@H](NCc2ccc3c(n2)CCNC3)CN(c2ccc(C#N)c3ncccc23)C1` [Example 30, 5-[(3S,5R)-3-methyl-5-(5,6,7,8-tetrahydro-1,6-naphthyridin-2-ylmethylamino)-1-piperidyl]quinoline-8-carbonitrile], 16 nM.
As to `C[C@H]1C[C@@H](NCc2cnc(N3CCNCC3)cn2)CN(c2ccc(C#N)c3ncccc23)C1` [Example 31, 5-[(3S,5R)-3-methyl-5-[(5-piperazin-1-ylpyrazin-2-yl)methylamino]-1-piperidyl]quinoline-8-carbonitrile], the IC50 is no more than 3 nM.
For the compound `C[C@H]1C[C@@H](NCc2ccccc2)CN(c2ccc(C#N)c3ncccc23)C1` [Example R1, reference compound], the IC50 stood at 89 nM. This counts as double-digit nanomolar.
In the case of `C[C@H]1C[C@@H](N2Cc3ccccc3C2)CN(c2ccc(C#N)c3ncccc23)C1` [Example R2, reference compound] it was 48 nM.
